Holding throughout (assay type): in vivo
The subject of one assay is Aphis gossypii. Briefly: Aphis gossypii test (Example 12). The settings on record: for Destruction (%) after 6 d: no additive. The procedure: For application with ammonium salts or phosphonium salts and penetration promoters (rapeseed oil methyl ester 500 EW) these are in each case added in a concentration of 1000 ppm a.i. to the spray liquor.
(§1) After the desired time the destruction in % is determined.

The subject of another assay is Myzus persicae. Put plainly: Myzus persicae test, activity boost through ammonium/phosphonium salts and penetration promoters (Example 11). As for the experimental part: For application with ammonium salts or phosphonium salts and penetration promoters (rapeseed oil methyl ester 500 EW) these are in each case added in a concentration of 1000 ppm to the spray liquor.
as §1

For the next assay, the system named is Maize - Arsenal. Briefly: Greenhouse container trials with maize, pre-emergence, with and without safener. The settings on record: 28 days after application. From the text:
Seeds of monocotyledonous and dicotyledonous weed plants and crop plants are placed in sandy loam soil in wood fibre pots or in plastic pots and are covered with earth. The test compounds, formulated as wettable powders (WP) or liquids (EC), are sprayed onto the soil surface in various dosages, with a water application rate of 300 l/ha (converted). The pots are then placed in a greenhouse under good growth conditions, and also, during the vegetation period, are placed outdoors, outside of the greenhouse, so that the plants are able to germinate and develop. 3 to 4 weeks after the trial plants have been treated, the effect of the products is rated visually in comparison to untreated controls (herbicidal effect in percent: 100% effect=plants have died, 0% effect=like control plants).
(§2) If the testing is also to look at whether safeners can improve the tolerance of the crop plants for test substances, the following options are used for the application of the safener: • seeds of the crop plants are dressed with the safener substance prior to sowing (the amount of safener is stated as a percentage, based on the seed weight) • pots containing the crop plants are sprayed with the safener, with a defined application rate per hectare, prior to application of the test substances • the safener is applied together with the test substance in the form of a tank mix (the amount of safener is reported in g/ha or as a proportion relative to the herbicide).
(§3) By comparing the effect of test substances on crop plants which have been treated with safener and without safener it is possible to assess the effect of the safener substance.

Another assay concerns Spring barley. Put plainly: Greenhouse container trials with cereals, post-emergence, with and without safener. As for the experimental part: (§4) Seeds of monocotyledonous and dicotyledonous weed plants and crop plants are placed in sandy loam soil in wood fibre pots or in plastic pots and are covered with earth and cultivated in a greenhouse and also, during the vegetation period, outdoors, outside of the greenhouse, under good growth conditions. 2 to 3 weeks after sowing, the trial plants are treated at the one- to three-leaf stage. The test compounds, formulated as wettable powders (WP) or liquids (EC), are sprayed onto the plants and the soil surface in various dosages, with a water application rate of 300 l/ha (converted) and with addition of wetting agent (0.2% to 0.3%). […]
as §2, with “weight) • crop plants” for “weight) • pots containing the crop plants”, “test substances (typically 1 day before the test substances are applied) • the” for “test substances • the”
as §3

The subject of a further assay is Spring wheat. The assay is described as above. The conditions noted are these: 10 days after application. As for the experimental part:
as §4
as §2, with “weight) • crop plants” for “weight) • pots containing the crop plants”, “test substances (typically 1 day before the test substances are applied) • the” for “test substances • the”
as §3

Where [1] appears, read: 20 ppm, no additive, bell pepper plants.

SMILES strings stand for the structures.

As for `COCC1(C)NC(=O)C(c2cc(-c3ccc(Cl)cc3)ccc2C)=C1O` (stereo not shown) [I-a-1], the “Destruction (%) after 6 d +AS 1000 ppm” value with Aphis gossypii (20 ppm active compound) is recorded as 20%; in the assay on Aphis gossypii (100 ppm active compound), 90%. Also, the “Destruction (%) after 6 d +AS +RME 1000 ppm each” value in the assay with Aphis gossypii (20 ppm active compound) is listed as 85%; with Aphis gossypii (100 ppm active compound) it was 90%. Also, the “Destruction (%) after 6 d +RME 1000 pm” value is given as 5% with Aphis gossypii (20 ppm active compound) and 90% with Aphis gossypii (100 ppm active compound). Also, the “Destruction (%) after 6 d” value in the assay with Aphis gossypii (20 ppm active compound) is reported as 5%; in the assay on Aphis gossypii (100 ppm active compound), 60%; in the assay with Myzus persicae (4 ppm, +AS 1000 ppm), 0%; in the assay on Myzus persicae (4 ppm, +AS +RME 1000 ppm each), 75%; in the assay with Myzus persicae (4 ppm, +RME 1000 pm), 35%; with Myzus persicae (4 ppm, no additive, bell pepper plants), 0%. Also, the “Destruction (%) after 6 d” value in the assay on Myzus persicae (20 ppm, +AS 1000 ppm) came to 65%; with Myzus persicae (20 ppm, +AS +RME 1000 ppm each), 99%; with Myzus persicae (20 ppm, +RME 1000 pm) it was 98%; in the assay on Myzus persicae (setting [1]) it was 0%.

Consider `COCC1(C)NC(=O)C(c2c(C)ccc(-c3ccc(Cl)cc3)c2C)=C1O` (stereo not shown) [I-a-7], for which, in the assay with Aphis gossypii (20 ppm active compound), the “Destruction (%) after 6 d +AS 1000 ppm” value stood at 10%, the “Destruction (%) after 6 d +AS +RME 1000 ppm each” value worked out at 90%, the “Destruction (%) after 6 d +RME 1000 pm” value worked out at 70% and the “Destruction (%) after 6 d” value is 5%.

Regarding `COCC1(C)NC(=O)C(c2cc(-c3ccc(F)cc3)ccc2C)=C1O` (stereo not shown) [I-a-12], the “Destruction (%) after 6 d” value in the assay with Myzus persicae (20 ppm, +AS 1000 ppm) was 0%; in the assay with Myzus persicae (20 ppm, +AS +RME 1000 ppm each) it was 99%; in the assay on Myzus persicae (20 ppm, +RME 1000 pm), 45%; in the assay with Myzus persicae (setting [1]) it was 10%; in the assay with Myzus persicae (100 ppm, +AS 1000 ppm), 98%; with Myzus persicae (100 ppm, +AS +RME 1000 ppm each), 99%. For the same compound, the “Destruction (%) after 6 d” value in the assay with Myzus persicae (100 ppm, +RME 1000 pm) came out at 99%; with Myzus persicae (100 ppm, no additive, bell pepper plants) it was 85%.

On to `CCc1cc(-c2ccc(Cl)cc2)cc(CC)c1C1=C(OC(=O)C(C)C)C(C)(COC)NC1=O` (stereo not shown) [I-b-2], for which the “Maize - Arsenal observed (%)” value in the assay with Maize - Arsenal (25 g a.i./ha) was 40%; with Maize - Arsenal (50 g a.i./ha), 50%.

For the compound `CCc1cc(-c2ccc(C)cc2)cc(C)c1C1=C(OC(=O)C(C)C)C(C)(COC)NC1=O` (stereo not shown) [I-b-5], the “Spring barley observed (%)” value stood at 10% in the assay on Spring barley (25 g a.i./ha, 28 days after application); 50% in the assay on Spring barley (50 g a.i./ha, 10 days after application); 65% in the assay with Spring barley (100 g a.i./ha, 10 days after application); 30% in the assay on Spring barley (100 g a.i./ha, 28 days after application). The “Spring wheat observed (%)” value amounted to 10% in the assay on Spring wheat (50 g a.i./ha) and 15% in the assay with Spring wheat (100 g a.i./ha).

With `CCOC(=O)OC1=C(c2c(C)cc(-c3ccc(Cl)cc3)cc2CC)C(=O)NC1(C)COC` (stereo not shown) [I-c-1], in the assay on Maize - Arsenal (50 g a.i./ha), the “Maize - Arsenal observed (%)” value was 55%.

Source of the values: patent US8173697B2, “Alkoxyalkyl-substituted cyclic keto-enols” (Bayer CropScience AG, priority 2006, dated 2012).
